Measurements: ChEMBL document CHEMBL3727356, “Therapeutic compounds and compositions” (2014)

Assays:
Pyruvate kinase PKLR [1] = molecular target: Pyruvate kinase PKLR (Homo sapiens, UniProt P30613, R510Q); test: Activation of PKR R510Q mutant (unknown origin) incubated for 60 mins in presence of ADP, PEP and NADH by Spectraax microplate reader based assay
Pyruvate kinase PKLR [2] = molecular target: Pyruvate kinase PKLR (Homo sapiens, UniProt P30613, R532W); test: Activation of PKR R532W mutant (unknown origin) incubated for 60 mins in presence of ADP, PEP and NADH by Spectraax microplate reader based assay
Pyruvate kinase PKLR [3] = molecular target: T1, Pyruvate kinase PKLR (Homo sapiens, UniProt P30613); test: Activation of wild type PKR (unknown origin) incubated for 60 mins in presence of ADP, PEP and NADH by Spectraax microplate reader based assay
Pyruvate kinase PKLR [4] = molecular target: T1, Pyruvate kinase PKLR; test: Activation of wild type PKR (unknown origin) by cell based assay

T1 sequence (P30613 whole entry): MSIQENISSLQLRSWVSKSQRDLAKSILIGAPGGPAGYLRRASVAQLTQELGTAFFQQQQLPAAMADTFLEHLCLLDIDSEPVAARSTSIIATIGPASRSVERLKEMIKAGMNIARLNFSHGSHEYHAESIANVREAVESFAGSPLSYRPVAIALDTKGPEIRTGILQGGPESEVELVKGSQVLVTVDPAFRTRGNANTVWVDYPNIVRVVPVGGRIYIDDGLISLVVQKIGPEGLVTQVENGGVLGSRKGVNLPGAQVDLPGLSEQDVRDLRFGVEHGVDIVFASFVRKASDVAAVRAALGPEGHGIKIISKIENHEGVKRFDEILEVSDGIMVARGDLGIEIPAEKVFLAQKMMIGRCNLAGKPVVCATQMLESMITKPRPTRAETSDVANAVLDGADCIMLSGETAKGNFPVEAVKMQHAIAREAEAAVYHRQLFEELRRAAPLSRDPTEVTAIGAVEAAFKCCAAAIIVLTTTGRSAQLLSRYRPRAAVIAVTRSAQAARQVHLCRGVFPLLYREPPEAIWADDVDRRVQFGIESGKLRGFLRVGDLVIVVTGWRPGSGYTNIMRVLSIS
Chain of Pyruvate kinase PKLR (Homo sapiens, UniProt P30613, R532W) (P30613 whole entry R532W): as the sequence (P30613 whole entry) above, with R532W counted along it
Chain of Pyruvate kinase PKLR (Homo sapiens, UniProt P30613, R510Q) (P30613 whole entry R510Q): as the sequence (P30613 whole entry) above, with R510Q counted along it

Row | SMILES | AC50 (Pyruvate kinase PKLR [1]) [nM] | AC50 (Pyruvate kinase PKLR [2]) [nM] | AC50 (Pyruvate kinase PKLR [3]) [nM] | AC50 (Pyruvate kinase PKLR [4]) [nM]
1 | Cc1cc(C(=O)N2CCC(O)(c3ccccc3Cl)CC2)ccc1NS(=O)(=O)c1cccc2cccnc12 | < 100 | < 100 | < 100 | < 100
2 | O=C(c1ccc(NS(=O)(=O)c2cccc3nccnc23)cc1)N1CCC(O)(Cc2ccccc2C(F)(F)F)CC1 | < 100 | < 100 | < 100 | < 100
3 | Cc1ccccc1CC1(O)CCN(C(=O)c2ccc(NS(=O)(=O)c3cccc4cccnc34)cc2)CC1 | < 100 | < 100 | < 100 | < 100
4 | Cc1nscc1CC1(O)CCN(C(=O)c2ccc(NS(=O)(=O)c3cccc4scnc34)cc2)CC1 | < 100 | < 100 | < 100 | < 100
5 | CC(C)(C)CC1(O)CCN(C(=O)c2ccc(NS(=O)(=O)c3ccc(F)c4cccnc34)cc2)CC1 | < 100 | < 100 | < 100 | < 100
6 | Cc1cc(C(=O)N2CCC(O)(Cc3ccccc3)CC2)ccc1NS(=O)(=O)c1cccc2cccnc12 | < 100 | < 100 | < 100 | < 100
7 | O=C(c1ccc(NS(=O)(=O)c2cccc3cccnc23)cc1OC(F)F)N1CCC(O)(c2ccccc2Cl)CC1 | < 100 | < 100 | < 100 | < 100
8 | Cc1nc(F)ccc1C1(O)CCN(C(=O)c2ccc(NS(=O)(=O)c3cccc4cccnc34)cc2)CC1 | < 100 | < 100 | < 100 | < 100
9 | Nc1nc2c(S(=O)(=O)Nc3ccc(C(=O)N4CCC(O)(c5ccccc5Cl)CC4)cc3)cccc2s1 | < 100 | < 100 | < 100 | < 100
10 | O=C(c1ccc(NS(=O)(=O)c2cccc3scnc23)cc1)N1CCC(O)(CCCC(F)F)CC1 | < 100 | < 100 | < 100 | < 100
11 | CC(C)CC1(O)CCN(C(=O)c2ccc(NS(=O)(=O)c3cccc4scnc34)cc2)CC1 | < 100 | < 100 | < 100 | < 100
12 | Cc1cnc2cccc(S(=O)(=O)Nc3ccc(C(=O)N4CCC(O)(CC(C)C)CC4)cc3)c2n1 | < 100 | < 100 | < 100 | < 100
13 | CNc1nc2c(S(=O)(=O)Nc3ccc(C(=O)N4CCC(O)(CC(C)C)CC4)cc3)cc(Cl)cc2s1 | < 100 | < 100 | < 100 | < 100
14 | O=C(c1ccc(NS(=O)(=O)c2cccc3cccnc23)cc1)N1CCC(O)(CC2CCC2)CC1 | < 100 | < 100 | < 100 | < 100
15 | O=C(c1ccc(NS(=O)(=O)c2cccc3nccnc23)cc1)N1CCC(O)(CCC=C(F)F)CC1 | < 100 | < 100 | < 100 | < 100
16 | O=C(c1ccc(NS(=O)(=O)c2cccc3cccnc23)cc1)N1CCC(O)(c2cccc(F)c2Cl)CC1 | < 100 | < 100 | < 100 | < 100
17 | O=C(c1ccc(NS(=O)(=O)c2ccc3nsnc3c2)cc1)N1CCC(O)(Cc2ccccc2)CC1 | ≤ 1000 | < 100 | < 100 | ≤ 1000
18 | O=C(c1ccc(NS(=O)(=O)c2cccc3cccnc23)cc1OC(F)(F)F)N1CCC(O)(c2ccccc2Cl)CC1 | < 100 | < 100 | < 100 | < 100
19 | Nc1nc2c(S(=O)(=O)Nc3ccc(C(=O)N4CCC(O)(c5cccc(F)c5F)CC4)cc3)cccc2s1 | < 100 | < 100 | < 100 | < 100
20 | Cc1nscc1CC1(O)CCN(C(=O)c2ccc(NS(=O)(=O)c3cccc4nccnc34)cc2)CC1 | < 100 | < 100 | < 100 | < 100
